Reference: patent US8916183B2, “Pesticidal compositions and processes related thereto” (priority 2012, dated 2014)

melting point [°C]	SMILES
213 to 216	FC(F)(F)Oc1ccc(-n2cnc(-c3ccc(/C=N/NC(=S)Nc4ccccc4C4CCCC4)cc3)n2)cc1 [Compound I-35]
219 to 222	Cc1cccc(NC(=S)N/N=C/c2ccc(-c3ncn(-c4ccc(OC(F)(F)F)cc4)n3)cc2)c1C(C)C [Compound I-43]
167 to 169	Cc1ccc(C(C)C)c(NC(=S)NN)c1 [Compound I-46]
163 to 167	CC(C)c1cc(F)ccc1NC(=S)NN [Compound I-50]
169 to 170	CC(C)c1cc(F)c(F)cc1NC(=S)NN [Compound I-54]
217 to 221	CC(C)c1cc(F)c(F)cc1NC(=S)N/N=C/c1ccc(-c2ncn(-c3ccc(OC(F)(F)F)cc3)n2)cc1 [Compound I-55]
